Values of other authors, collected in patent US20070207452A1, “Method of detecting micronucleus in cell” (Olympus Corporation, priority 2004, published 2007).

Tested on: bacteria
Details: background statement; carcinogenic substances detected by the chromosomal aberration test

SMILES | result in the reverse mutation test
c1ccccc1 [benzene] | negative
CC/C(=C(/CC)c1ccc(O)cc1)c1ccc(O)cc1 [diethylstilbestrol] | negative
